These results are taken from patent US20070243215A1, “Adjuvant for Dna Vaccines” (priority 2004, published 2007).

Each structure is given as a SMILES string.

The test concerns N202/1A tumor cells. The experiment in a line: Serum transfer and tumor cell challenge. The test is classed as in vivo. The conditions noted are these: 150 μL pooled serum from treated donor mice; challenge 24 h later subcutaneously with 10^5 N202/1A tumor cells. On the procedure: Animals were treated as in Example 1 for each of the following groups: (1) Immunized with pCMV-ECD-TM, not treated with IRM (HER-2/neu); (2) Immunized with pCMV-ECD-TM, treated with IRM2 (IRM+HER-2/neu); or (3) untreated (Control). Two weeks after the immunization period was completed, sera were harvested from the animals and pooled among animals receiving the same treatment.
150 μL of pooled serum was injected into eight-week old animals (5 animals/treatment serum). Twenty-four hours after administration of the serum, each mouse was challenged with subcutaneously with 10^5 N202/1A tumor cells and monitored to register the development of tumors.

With `CC(C)Cn1cnc2c(N)nc3ccccc3c21` [IRM2, 1-(2-methylpropyl)-1H-imidazo[4,5-c]quinolin-4-amine], the “percentage of recipient mice remaining tumor free (protection against tumor development)” value was “An even greater percentage”.
